# Data taken from patent EP0210342A2, “Medicament containing pyridinones having an antithrombotic activity” (Dr. Karl Thomae GmbH, priority 1985, dated 1987).
# How the values were obtained:
# Thrombusbildung = test: Stenosis-induced spontaneous coronary thrombus formation in anaesthetised dogs (shake loose, Folts); assay type: in vivo, Hunde; conditions: for antithrombotische Wirkung: 1 mg/kg; for Verminderung der Häufigkeit der Spontanverschlüsse: 1 mg/kg i.v.
# [1] = Acute toxicity in mice (LD50, 14 days observation); parameters: species or system Mäusen; conditions: mouse, in vivo, observation 14 days
# Source text: Die akute Toxizität der zu untersuchenden Substanzen wurde an Mäusen (Beobachtungszeit: 14 Tage) nach oraler bzw. intravenöser Gabe bestimmt. Es wurde die LD₅₀ aus dem Prozentsatz der Tiere berechnet, die nach verschiedenen Dosen innerhalb der Beobachtungszeit verstarben: […]
smiles,measurement,setting,value
"CC(C)NCC(O)COc1ccc(CC(N)=O)cc1 (stereo not drawn) [Atenolol, reference compound]",antithrombotische Wirkung,Thrombusbildung,nicht antithrombotisch
"COc1ccc2nc(-c3ccc(OCC(O)CNC(C)(C)C)cc3)n(C)c(=O)c2c1 (single isomer, unassigned; (-)) [Verbindung C, (-)-2-2[4-(2-Hydroxy-3-tert.butylamino-propoxy)-phenyl]-3-methyl-6-methoxy-3,4-dihydro-chinazolin-4-on]",Verminderung der Häufigkeit der Spontanverschlüsse,Thrombusbildung; 30th to 60th minute after substance,73%
same,Verminderung der Häufigkeit der Spontanverschlüsse,Thrombusbildung; first 30 min after substance,55%
"CC(C)NCC(O)COc1cccc2ccccc12 (stereo not drawn) [Propranolol, reference compound]",antithrombotische Wirkung,Thrombusbildung,nicht antithrombotisch
"COc1ccc2nc(-c3ccc(OCC(O)CNC(C)(C)C)cc3)n(C)c(=O)c2c1 (stereo not drawn) [Verbindung B, 2-[4-(2-Hydroxy-3-tert.butylamino-propoxy)-phenyl]-3-methyl-6-methoxy-3,4-dihydro-chinazolin-4-on]",LD50 at 336 h,[1]; iv,75 mg/kg
same,LD50 at 336 h,[1]; po,750 mg/kg
